Patent publication US4232150A, “Oligosaccharide precursors to substituted O-α-D and O-β-D-multigalactopyranosyl and glucopyranosyl 1→4 and 1→6 galactopyranosyl 1→6α-D-glucopyranoses” (American Cyanamid Company, priority 1979, dated 1980)
Where a name gives a salt, the structure may show the parent alone.

Legend:
Conditions in all cases: serial twofold dilution assay; higher well number indicates higher activity
[1] = system: late components of human complement (C3-C9); assay: Test Code 035 (C3-C9 inhibitor; C-Late), lysis of EAC 142; format: cell-based
Text: (§1) An active inhibitor protects C2 from C1 and C4; (ii) Test Cod3 035 (3-C9 inhibitor)--This test determines the ability of the late components of human complement (C3-C9) to lyse EAC 142 in the presence of appropriate dilutions of the test compound. An active inhibitor protects EAC 142 from lysis by human C3-C9; (iii) Test Code 036 (C-Shunt inhibitor)--In this test human erythrocytes rendered fragile are lysed in autologous serum via the shunt pathway activated by cobra venom factor in the presence of appropriate dilutions of the test compound. Inhibition of the shunt pathway results in failure of lysis; (iv) Forssman Vasculitis Test--Here, the well known complement dependent lesion, Forssman vasculitis, is produced in guinea pigs by intradermal injection of rabbit anti-Forssman antiserum. The lesion is measured in terms of diameter, edema and hemorrhage and the extent to which a combined index of these is inhibited by prior intraperitoneal injection of the test compound at 200 mg/kg is then reported, unless otherwise stated; (v) Forssman Shock Test--Lethal shock is produced in guinea pigs by an i.v. injection of anti-Forssman antiserum and the harmonic mean death time of treated guinea pigs is compared with that of simultaneous controls; (vi) Complement Level Reduction Test--In this test, the above dosed guinea pigs, or others, are bled for serum and the complement level is determined in undiluted serum by the capillary tube method of U.S. Pat. No. 3,876,376 and compared to undosed control guinea pigs; (vii) Cap 50 Test--Here, appropriate amounts of the test compound are added to a pool of guinea pig serum in vitro, after which the undiluted serum capillary tube assay referred to above is run. The concentration of compound inhibiting 50% is reported;
(§2) **Activity in wells, a serial dilution assay; higher well number indicate
(§3) higher activity. The serial dilutions are twofold

[2] = system: shunt pathway activated by cobra venom factor; assay: Test Code 036 (C-Shunt inhibitor), lysis of human erythrocytes by cobra venom factor; format: cell-based
Text: as §1, §2, §3

activated human C1 = biological target: T1, activated human C1 (Homo sapiens, UniProt P09871); assay: Test Code 026 (C1 inhibitor); format: biochemical
T1 construct: functional test of fluid-phase human C2 destruction in presence of C4
T1 sequence (P09871 16-688): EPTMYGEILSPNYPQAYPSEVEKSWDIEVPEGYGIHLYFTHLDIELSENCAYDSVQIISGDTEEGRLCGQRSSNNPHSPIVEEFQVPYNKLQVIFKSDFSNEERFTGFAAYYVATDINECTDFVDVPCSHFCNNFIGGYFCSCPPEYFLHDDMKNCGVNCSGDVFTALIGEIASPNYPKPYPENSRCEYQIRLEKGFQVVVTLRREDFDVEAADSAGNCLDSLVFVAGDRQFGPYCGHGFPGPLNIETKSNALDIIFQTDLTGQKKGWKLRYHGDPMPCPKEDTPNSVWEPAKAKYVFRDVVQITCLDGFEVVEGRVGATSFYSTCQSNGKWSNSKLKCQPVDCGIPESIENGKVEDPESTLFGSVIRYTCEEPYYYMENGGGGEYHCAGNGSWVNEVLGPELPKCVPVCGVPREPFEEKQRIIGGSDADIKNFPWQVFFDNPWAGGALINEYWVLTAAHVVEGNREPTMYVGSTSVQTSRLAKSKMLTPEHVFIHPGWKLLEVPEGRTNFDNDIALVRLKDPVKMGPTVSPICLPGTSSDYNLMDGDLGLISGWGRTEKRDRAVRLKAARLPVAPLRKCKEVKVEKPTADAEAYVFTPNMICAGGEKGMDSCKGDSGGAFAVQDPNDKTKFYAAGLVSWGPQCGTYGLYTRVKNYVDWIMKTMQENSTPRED
T1 sequence (P00736 18-705 partner): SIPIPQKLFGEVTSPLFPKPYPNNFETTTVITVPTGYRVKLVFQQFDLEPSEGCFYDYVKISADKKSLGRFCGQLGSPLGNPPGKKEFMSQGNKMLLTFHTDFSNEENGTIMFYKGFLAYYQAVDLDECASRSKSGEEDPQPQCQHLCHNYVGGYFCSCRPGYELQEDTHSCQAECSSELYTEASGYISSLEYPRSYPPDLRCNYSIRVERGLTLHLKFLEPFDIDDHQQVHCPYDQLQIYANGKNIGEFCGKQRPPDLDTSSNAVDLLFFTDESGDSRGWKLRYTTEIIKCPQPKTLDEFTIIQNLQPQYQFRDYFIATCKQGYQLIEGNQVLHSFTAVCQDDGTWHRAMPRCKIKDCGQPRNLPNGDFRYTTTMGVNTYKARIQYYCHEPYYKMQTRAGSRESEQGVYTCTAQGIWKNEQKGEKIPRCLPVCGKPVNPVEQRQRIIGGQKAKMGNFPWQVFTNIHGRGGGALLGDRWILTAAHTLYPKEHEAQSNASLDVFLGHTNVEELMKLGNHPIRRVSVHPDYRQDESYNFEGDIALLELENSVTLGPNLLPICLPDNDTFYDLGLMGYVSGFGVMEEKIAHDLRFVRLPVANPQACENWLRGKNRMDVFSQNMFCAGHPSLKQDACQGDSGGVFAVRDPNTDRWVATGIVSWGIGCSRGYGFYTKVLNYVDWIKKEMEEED
T1 sequence (P02745 23-245 partner): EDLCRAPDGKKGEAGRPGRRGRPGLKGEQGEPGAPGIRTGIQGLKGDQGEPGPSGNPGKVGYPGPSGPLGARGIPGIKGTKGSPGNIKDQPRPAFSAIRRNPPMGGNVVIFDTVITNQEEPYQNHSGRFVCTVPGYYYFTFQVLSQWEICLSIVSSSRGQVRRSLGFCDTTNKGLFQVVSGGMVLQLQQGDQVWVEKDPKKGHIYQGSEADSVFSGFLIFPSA
T1 sequence (P02746 28-253 partner): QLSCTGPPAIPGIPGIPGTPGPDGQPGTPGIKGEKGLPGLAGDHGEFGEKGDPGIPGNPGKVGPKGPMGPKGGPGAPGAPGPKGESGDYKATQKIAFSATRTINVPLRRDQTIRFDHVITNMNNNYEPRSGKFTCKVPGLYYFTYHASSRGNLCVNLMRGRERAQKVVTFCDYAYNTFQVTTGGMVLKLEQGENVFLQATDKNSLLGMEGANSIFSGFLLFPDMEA
T1 sequence (P02747 29-245 partner): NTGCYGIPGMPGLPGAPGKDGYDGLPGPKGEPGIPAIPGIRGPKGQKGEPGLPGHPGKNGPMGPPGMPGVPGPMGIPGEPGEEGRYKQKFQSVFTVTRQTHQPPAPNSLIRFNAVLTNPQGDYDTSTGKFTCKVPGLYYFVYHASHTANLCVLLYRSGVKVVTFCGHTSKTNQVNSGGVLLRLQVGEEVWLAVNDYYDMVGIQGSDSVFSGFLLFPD
Text: as §1, §2, §3

SMILES | C-Late 035* Wells [1] | Shunt Inhibition 036* Wells [2] | C1 026* Wells (activated human C1)
O=S(=O)(O)OC[C@H]1O[C@@H](OC[C@H]2O[C@H](OC[C@H]3O[C@H](OS(=O)(=O)O)[C@H](OS(=O)(=O)O)[C@@H](OS(=O)(=O)O)[C@@H]3OS(=O)(=O)O)[C@H](OS(=O)(=O)O)[C@@H](OS(=O)(=O)O)[C@H]2OS(=O)(=O)O)[C@H](OS(=O)(=O)O)[C@@H](OS(=O)(=O)O)[C@@H]1O[C@H]1O[C@H](COS(=O)(=O)O)[C@@H](O[C@H]2O[C@H](COS(=O)(=O)O)[C@@H](OS(=O)(=O)O)[C@H](OS(=O)(=O)O)[C@H]2OS(=O)(=O)O)[C@H](OS(=O)(=O)O)[C@H]1OS(=O)(=O)O [(glc →1α,4)2 glc →1β,6 gal →1α,6 heptadecakis (H-sulfate), h] [(Glc 1α,4)2 glc 1β,6 gal 1α,6 glc heptadecakis (H-sulfate) heptadecasodium salt] | +2 Wells | +6 Wells | +9 Wells
O=S(=O)(O)OC[C@H]1O[C@@H](OC[C@H]2O[C@H](OC[C@H]3OC(OS(=O)(=O)O)[C@H](OS(=O)(=O)O)[C@@H](OS(=O)(=O)O)[C@@H]3OS(=O)(=O)O)[C@H](OS(=O)(=O)O)[C@@H](OS(=O)(=O)O)[C@H]2OS(=O)(=O)O)[C@H](OS(=O)(=O)O)[C@@H](OS(=O)(=O)O)[C@@H]1O[C@H]1O[C@H](COS(=O)(=O)O)[C@@H](O[C@H]2O[C@H](COS(=O)(=O)O)[C@@H](O[C@H]3O[C@H](COS(=O)(=O)O)[C@@H](O[C@H]4O[C@H](COS(=O)(=O)O)[C@@H](O[C@H]5O[C@H](COS(=O)(=O)O)[C@@H](O[C@H]6O[C@H](COS(=O)(=O)O)[C@@H](OS(=O)(=O)O)[C@H](OS(=O)(=O)O)[C@H]6OS(=O)(=O)O)[C@H](OS(=O)(=O)O)[C@H]5OS(=O)(=O)O)[C@H](OS(=O)(=O)O)[C@H]4OS(=O)(=O)O)[C@H](OS(=O)(=O)O)[C@H]3OS(=O)(=O)O)[C@H](OS(=O)(=O)O)[C@H]2OS(=O)(=O)O)[C@H](OS(=O)(=O)O)[C@H]1OS(=O)(=O)O (stereo partly drawn) [(glc →1α,4)6 glc →1β,6 gal →1α,6 glc nonacosakis (H-sulfate)] [(Glc 1α,4)6 glc 1β,6 gal 1α,6 glc nonacosakis (H-sulfate) nonacosasalt with trimethylamine] | +1 Wells | +5 Wells | +10 Wells
O=S(=O)(O)OC[C@H]1O[C@@H](OC[C@H]2O[C@H](OC[C@H]3OC(OS(=O)(=O)O)[C@H](OS(=O)(=O)O)[C@@H](OS(=O)(=O)O)[C@@H]3OS(=O)(=O)O)[C@H](OS(=O)(=O)O)[C@@H](OS(=O)(=O)O)[C@H]2OS(=O)(=O)O)[C@H](OS(=O)(=O)O)[C@@H](OS(=O)(=O)O)[C@@H]1O[C@H]1O[C@H](COS(=O)(=O)O)[C@@H](O[C@H]2O[C@H](COS(=O)(=O)O)[C@@H](O[C@H]3O[C@H](COS(=O)(=O)O)[C@@H](O[C@H]4O[C@H](COS(=O)(=O)O)[C@@H](O[C@H]5O[C@H](COS(=O)(=O)O)[C@@H](O[C@H]6O[C@H](COS(=O)(=O)O)[C@@H](OS(=O)(=O)O)[C@H](OS(=O)(=O)O)[C@H]6OS(=O)(=O)O)[C@H](OS(=O)(=O)O)[C@H]5OS(=O)(=O)O)[C@H](OS(=O)(=O)O)[C@H]4OS(=O)(=O)O)[C@H](OS(=O)(=O)O)[C@H]3OS(=O)(=O)O)[C@H](OS(=O)(=O)O)[C@H]2OS(=O)(=O)O)[C@H](OS(=O)(=O)O)[C@H]1OS(=O)(=O)O (stereo partly drawn) [(glc →1α,4)6 glc →1β,6 gal →1α,6 nonacosakis (H-sulfate), no] [(Glc 1α,4)6 glc 1β,6 gal 1α,6 glc nonacosakis (H-sulfate) nonacosasodium salt] | +3 Wells | +5 Wells | +9 Wells
O=S(=O)(O)OC[C@H]1O[C@@H](OC[C@H]2O[C@H](OC[C@H]3O[C@H](OS(=O)(=O)O)[C@H](OS(=O)(=O)O)[C@@H](OS(=O)(=O)O)[C@@H]3OS(=O)(=O)O)[C@H](OS(=O)(=O)O)[C@@H](OS(=O)(=O)O)[C@H]2OS(=O)(=O)O)[C@H](OS(=O)(=O)O)[C@@H](OS(=O)(=O)O)[C@@H]1O[C@H]1O[C@H](COS(=O)(=O)O)[C@@H](O[C@H]2O[C@H](COS(=O)(=O)O)[C@@H](OS(=O)(=O)O)[C@H](OS(=O)(=O)O)[C@H]2OS(=O)(=O)O)[C@H](OS(=O)(=O)O)[C@H]1OS(=O)(=O)O [(glc →1α,4) 2 glc →1β,6 gal →1α,6 heptadecakis (H-sulfate), ] [(Glc 1α,4)2 glc 1β,6 gal 1α,6 glc heptadecakis (H-sulfate) heptadecasalt with trimethylamine] | +1 Wells | – | +9 Wells
O=S(=O)(O)OC[C@H]1O[C@H](OC[C@H]2OC(OS(=O)(=O)O)[C@H](OS(=O)(=O)O)[C@@H](OS(=O)(=O)O)[C@@H]2OS(=O)(=O)O)[C@H](OS(=O)(=O)O)[C@@H](OS(=O)(=O)O)[C@H]1OS(=O)(=O)O (stereo partly drawn) [Gal 1α,6 glc octakis (H-sulfate), octasodium salt] | – | – | +8 Wells
O=S(=O)(O)OC[C@H]1O[C@H](OC[C@H]2O[C@@H](OC[C@H]3O[C@H](OC[C@H]4O[C@H](OS(=O)(=O)O)[C@H](OS(=O)(=O)O)[C@@H](OS(=O)(=O)O)[C@@H]4OS(=O)(=O)O)[C@H](OS(=O)(=O)O)[C@@H](OS(=O)(=O)O)[C@H]3OS(=O)(=O)O)[C@H](OS(=O)(=O)O)[C@@H](OS(=O)(=O)O)[C@@H]2OS(=O)(=O)O)[C@H](OS(=O)(=O)O)[C@@H](OS(=O)(=O)O)[C@H]1OS(=O)(=O)O [gal →1α,6 glc →1β,6 gal →1α,6 tetradecakis (H-sulfate), tetr] [Gal 1α,6 glc 1β,6 gal 1α,6 glc tetradecakis (H-sulfate), tetradecasalt with trimethylamine] | +1 Wells | +5 Wells | +9 Wells
O=S(=O)(O)OC[C@H]1O[C@@H](OC[C@H]2O[C@H](OC[C@H]3O[C@H](OS(=O)(=O)O)[C@H](OS(=O)(=O)O)[C@@H](OS(=O)(=O)O)[C@@H]3OS(=O)(=O)O)[C@H](OS(=O)(=O)O)[C@@H](OS(=O)(=O)O)[C@H]2OS(=O)(=O)O)[C@H](OS(=O)(=O)O)[C@@H](OS(=O)(=O)O)[C@H]1OS(=O)(=O)O [gal →1β,6 gal →1α,6 glc undecakis -sulfate), undecasalt with] [Gal 1β,6 gal 1α,6 glc undecakis (H-sulfate), undecasalt with trimethylamine] | – | – | +9 Wells
O=S(=O)(O)OC[C@H]1O[C@@H](OC[C@H]2O[C@H](OC[C@H]3O[C@H](OS(=O)(=O)O)[C@H](OS(=O)(=O)O)[C@@H](OS(=O)(=O)O)[C@@H]3OS(=O)(=O)O)[C@H](OS(=O)(=O)O)[C@@H](OS(=O)(=O)O)[C@H]2OS(=O)(=O)O)[C@H](OS(=O)(=O)O)[C@@H](OS(=O)(=O)O)[C@H]1OS(=O)(=O)O [gal →1β,6 gal →1α,6 glc undecakis -sulfate), undecasodium sa] [Gal 1β,6 gal 1α,6 glc undecakis (H-sulfate), undecasodium salt] | – | – | +9 Wells
O=S(=O)(O)OC[C@H]1O[C@@H](OC[C@H]2O[C@H](OC[C@H]3OC(OS(=O)(=O)O)[C@H](OS(=O)(=O)O)[C@@H](OS(=O)(=O)O)[C@@H]3OS(=O)(=O)O)[C@H](OS(=O)(=O)O)[C@@H](OS(=O)(=O)O)[C@H]2OS(=O)(=O)O)[C@H](OS(=O)(=O)O)[C@@H](OS(=O)(=O)O)[C@@H]1O[C@H]1O[C@H](COS(=O)(=O)O)[C@@H](OS(=O)(=O)O)[C@H](OS(=O)(=O)O)[C@H]1OS(=O)(=O)O (stereo partly drawn) [glc →1α,4 glc →1β,6 gal →1α,6 glc tetradecakis (H-sulfate), ] [Glc 1α,4 glc 1β,6 gal 1α,6 glc tetradecakis (H-sulfate), tetradecasalt with trimethylamine] | +1 Wells | – | –
O=S(=O)(O)OC[C@H]1O[C@@H](OC[C@H]2O[C@H](OC[C@H]3O[C@H](OS(=O)(=O)O)[C@H](OS(=O)(=O)O)[C@@H](OS(=O)(=O)O)[C@@H]3OS(=O)(=O)O)[C@H](OS(=O)(=O)O)[C@@H](OS(=O)(=O)O)[C@H]2OS(=O)(=O)O)[C@H](OS(=O)(=O)O)[C@@H](OS(=O)(=O)O)[C@@H]1O[C@@H]1O[C@H](COS(=O)(=O)O)[C@@H](OS(=O)(=O)O)[C@H](OS(=O)(=O)O)[C@H]1OS(=O)(=O)O [glc →1β,4 glc →1β,6 gal →1α,6 glc tetradecakis (H-sulfate), ] [Glc 1β,4 glc 1β,6 gal 1α,6 glc tetradecakis (H-sulfate), tetradecasodium salt] | – | – | +9 Wells
O=S(=O)(O)OC[C@H]1O[C@@H](OC[C@H]2O[C@H](OC[C@H]3O[C@H](OS(=O)(=O)O)[C@H](OS(=O)(=O)O)[C@@H](OS(=O)(=O)O)[C@@H]3OS(=O)(=O)O)[C@H](OS(=O)(=O)O)[C@@H](OS(=O)(=O)O)[C@H]2OS(=O)(=O)O)[C@H](OS(=O)(=O)O)[C@@H](OS(=O)(=O)O)[C@@H]1O[C@@H]1O[C@H](COS(=O)(=O)O)[C@@H](OS(=O)(=O)O)[C@H](OS(=O)(=O)O)[C@H]1OS(=O)(=O)O [glc →1β,4 glc →1β,6 gal →1α,6 glc tetradicakis (H-sulfate), ] [Glc 1β,4 glc 1β,6 gal 1α,6 glc tetradecakis (H-sulfate), tetradecasalt with trimethylamine] | – | +4 Wells | +9 Wells
